Results as given in patent US10345292B2, “Mammalian cell lines expressing functional nematode acetylcholine receptors and use thereof for high-throughput screening assays” (priority 2014, dated 2019).
pEC50: −log10 of the molar value. Read-outs that look alike come from different tables or passages of the source.

Legend:
[1] = target: T1, Hco ACR-16/hRIC3 cell line (Haemonchus contortus, UniProt A9Y2C3); assay: Ca2+ measurement in 384-well plate format on FDSS6000 (Fluo-4AM); assay type: cell-based
T1 sequence (A9Y2C3 1-494): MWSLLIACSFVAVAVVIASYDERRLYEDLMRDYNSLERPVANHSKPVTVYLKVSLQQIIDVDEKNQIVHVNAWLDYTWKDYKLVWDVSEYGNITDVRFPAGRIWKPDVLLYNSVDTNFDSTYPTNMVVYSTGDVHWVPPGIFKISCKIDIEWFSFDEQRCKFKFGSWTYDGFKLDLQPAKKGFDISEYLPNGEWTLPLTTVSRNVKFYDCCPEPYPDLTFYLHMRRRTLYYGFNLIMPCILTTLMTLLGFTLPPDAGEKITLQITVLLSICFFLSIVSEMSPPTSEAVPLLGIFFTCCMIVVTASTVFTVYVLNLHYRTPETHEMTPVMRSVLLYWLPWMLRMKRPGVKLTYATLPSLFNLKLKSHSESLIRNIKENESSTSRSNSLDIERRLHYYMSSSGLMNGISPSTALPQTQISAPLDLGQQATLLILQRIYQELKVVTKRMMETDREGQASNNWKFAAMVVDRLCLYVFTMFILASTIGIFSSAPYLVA
T1 sequence (Q7Z5B4 29-369 partner): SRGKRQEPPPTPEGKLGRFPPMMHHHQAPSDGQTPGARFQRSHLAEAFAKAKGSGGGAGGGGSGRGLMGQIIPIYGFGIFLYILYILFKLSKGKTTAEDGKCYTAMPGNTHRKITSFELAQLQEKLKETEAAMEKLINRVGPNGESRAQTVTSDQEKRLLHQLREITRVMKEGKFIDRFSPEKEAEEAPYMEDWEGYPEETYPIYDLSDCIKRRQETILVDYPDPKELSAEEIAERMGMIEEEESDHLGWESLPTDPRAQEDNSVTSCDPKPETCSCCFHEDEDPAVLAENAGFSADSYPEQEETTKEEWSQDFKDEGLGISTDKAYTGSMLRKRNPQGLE

[2] = system: Hco ACR-16/hRIC3 stable cell line (Flp-In-293-Hco ACR-16 hRic3); assay type: cell-based, Haemonchus contortus; parameters: AUC, Mean / AUC, Median: unit not given beside the values
[3] = target: T2, Hco ACR-16/Hco RIC3 stable cell line (Haemonchus contortus, UniProt A9Y2C3); assay: Ca2+ measurement in 384-well plate format on FDSS6000 (Fluo-4AM); assay type: cell-based
T2 sequence (A9Y2C3 1-494): T1 sequence (A9Y2C3 1-494)

[4] = system: Dim ACR-16/Dim RIC3 stable cell line; assay: as above; assay type: cell-based, Dirofilaria immitis

Compound `CC(=O)OCC[N+](C)(C)C` [Acetylcholine] has a pEC50 [1] of 6.32.
With `Clc1ccc(C2CC3CCC2N3)cn1` (stereo not drawn) [Epibatidine] the “AUC, Mean” value [2] was 271.25, the “AUC, Median” value [2] was 253.67 and the “Ratio, Mean” value [2] was 2.51. The “Ratio, Median” value [2] was 2.15, the “Rmax, Mean” value [2] was 2.62 and the “Rmax, Median” value [2] was 2.34. For the same compound, the “Rmin, Mean” value [2] was 1.02, the “Rmin, Median” value [2] was 1.04 and the pEC50 [1] was 8.22. The “Signal amplitude with 10 μM PNU120596 + 300 nM epibatidine application” value (shortened to “Signal amplitude”) ([1]; 24 h @ 37° C.) was 1503 RFU, the “Signal amplitude” value ([1]; 24 h @ 37° C. + 24 h @ 30° C.) was 2160 RFU and the pEC50 [3] was 8.30. The “Signal amplitude” value ([3]; 24 h @ 37° C.) was 680 RFU, the “Signal amplitude” value ([3]; 24 h @ 37° C. + 24 h @ 30° C.) was 1601 RFU and the “Signal amplitude” value [4] was 450 RFU. The pEC50 ([4]; read-out: EC50 (FIG. 10, FIG. 11)) was 8.00 and the pEC50 ([4]; read-out: EC50 value) was 8.30.
`CN1CCCC1c1cccnc1` (stereo not drawn) [Nicotine] was tested, and the pEC50 [1] was 6.70, the pEC50 ([4]; read-out: EC50 (FIG. 10, FIG. 11), orthosteric reference agonist, concentration response curve) was 6.46 and the pEC50 ([4]; read-out: EC50 value, Revealed by co-application of PNU-120956) was 6.40.
With `COc1cc(OC)c(NC(=O)Nc2cc(C)on2)cc1Cl` [PNU-120956] the pEC50 ([1]; four-parameter logistic fit, cell line not named in legend, read-out: XC50 from concentration-response curve (FIG. 8)) was 6.80, the pEC50 ([3]; Revealed by co-application of EC100 orthosteric reference agonist, read-out: EC50 value) was 5.85 and the pEC50 ([4]; allosteric modulator response curve, read-out: EC50 (FIG. 12)) was 5.62.
